Results as given in publication PMC10835127, “Viruses traverse the human proteome through peptide interfaces that can be biomimetically leveraged for drug discovery” (Proceedings of the National Academy of Sciences of the …, 2024).
Like-named read-outs stand apart in the source and are kept apart here.

Columns and labels:
influenza A H1N1 virus = conditions: 48 hr post-treatment, A549
HCV replicon = type: cell-based; conditions: normalized mean of HCV replicon readout
EBV = conditions: normalized mean of EBV replication readout
HIV1 strain NL4-3 = type: cell-based; conditions: normalized mean of HIV1 replication readout
[1] = test system: F. novicida (strain U112); type: cell-based

Substance	Neuraminidase activity normalized to vehicle (influenza A H1N1 virus; 200 µM peptide)	Neuraminidase activity normalized to vehicle (influenza A H1N1 virus; 0,823 µM peptide)	Neuraminidase activity normalized to vehicle (influenza A H1N1 virus; 22,2 µM peptide)	Neuraminidase activity normalized to vehicle (influenza A H1N1 virus; 2,4691 µM peptide)	Neuraminidase activity normalized to vehicle (influenza A H1N1 virus; 7,4074 µM peptide)	Neuraminidase activity normalized to vehicle (influenza A H1N1 virus; 66,6667 µM peptide)	HCV Norm MEAN (HCV replicon; peptide screen)	EBV Norm MEAN (EBV; peptide screen)	HIV1 Norm MEAN (HIV1 strain NL4-3; peptide screen)	Francisella novicida Norm AUC [1]	HCV Norm MEAN (HCV replicon)	EBV Norm MEAN (EBV)	HIV1 Norm MEAN (HIV1 strain NL4-3)
CPEP99: peptide of the viral peptide library; sequence page not shown (SWESHKSGGETRL)	1,0243	0,9063	1,004	0,994	0,9109	1,1024	0.3379	0.7952	0.6504	1.1			
CPEP102: peptide of the viral peptide library; sequence page not shown (PHGPVQLSYYD)	0,8099	0,6759	0,942	1,0283	0,877	1,0125				0.8816	0.8145	1.648	1.958
CPEP103: viral library peptide from HCV NS4A targeting EEF1A1 (GCVVIVGRIVLSGK)	0,0978	0,8342	0,2828	0,8866	0,7276	0,1254	0.4622	0.7665	0.2448	0.5448			
CPEP126: peptide of the viral peptide library; sequence page not shown (TQNLYPDLSEIKK)	0,8408	0,9498	0,8904	0,9431	0,8627	0,9364	0.4853	0.8026	0.6553	1.192			
CPEP127: peptide of the viral peptide library; sequence page not shown (LVKPTVYVYSR)	0,2557	0,9001	0,8705	1,007	0,8577	0,9535				0.4703	0.6257	0.673	1.624
CPEP135: peptide of the viral peptide library; sequence page not shown (KGHRGSHTMNGH)	0,865	0,9322	0,9598	0,9359	0,8333	0,9822				1.216	0.5732	0.8556	0.5949
CPEP136: peptide of the viral peptide library; sequence page not shown (VTNDCPNSSIVYE)	0,9602	0,8343	0,8466	0,9183	0,8168	0,9818	0.4475	1.578	0.7957	1.265			
CPEP140: peptide of the viral peptide library; sequence page not shown (RKKRRQRRRA)	0,616	0,9961	1,0982	1,0685	0,9007	1,0124				0.8228	0.5668	1.618	1.188
CPEP142: peptide of the viral peptide library; sequence page not shown (LGIVCPICSQKP)	0,8923	0,9385	0,9689	0,9538	0,9445	1,085				1.819	0.308	1.863	0.603
CPEP153: peptide of the viral peptide library; sequence page not shown (GRKKRRQRRR)	0,9878	1,0171	1,0832	1,0648	1,0014	1,1029				0.6851	0.3202	2.382	0.7984
DDLYEEV [CPEP111]	0,7987	0,9384	0,8898	0,8026	0,8887	0,8909				0.6875	0.2545	0.5736	0.957
DILDLWIYHTQGYFPDWQ [CPEP114]	0,4016	1,1783	1,017	1,0928	1,195	0,5539	0.2469	1.296	4.359	1.151			
DKELYPLTSLRSLFG [CPEP65]	0,356	0,8623	1,0442	0,9706	0,9802	1,0044	0.8278	0.6954	0.2888	0.6089			
DLYCYEQLNDSSEEE [CPEP55]	1,025	0,8699	0,9333	0,9062	0,9392	1,0033	0.7703	0.3423	0.5362	1.147			
DLYCYEQLNDSSEEEDE [CPEP125]	0,7813	1,0772	1,1403	0,9577	1,1015	0,8979	0.9031	1.019	1.6	1.158			
EALKKALRRHRFLWQRR [CPEP73]	0,1338	1,11	1,1241	0,9956	1,1329	0,4622	0.02817	2.469	0.2962	1.711			
EDLLNEPGQPLDLSC [CPEP104]	0,8372	0,8247	0,8954	0,9133	0,8771	0,8952	1.128	0.504	0.2933	1.073			
EDPNEE [CPEP68]	0,7574	0,7462	0,8576	0,7296	0,7652	0,95				0.6174	0.2553	0.4757	1.205
ELLSGLQEWL [CPEP85]	0,9118	0,9858	0,8356	0,9371	0,8683	0,8029				1.212	0.7957	1.35	0.5625
